Patent US6127342A, “Method for preventing or treating a lung disease caused by active oxygen and free radical injury” (Teijin Limited, priority 1991, dated 2000)

Assays:
[1] = in vivo; cited from earlier work
[2] = test system: ovalbumin inhalation model using guinea pigs; experiment: Airway responsiveness (Ach PC200) in ovalbumin inhalation model; format: in vivo; details: guinea pig; 2% OA aerosol 10 days; 10 mg/kg i.p. twice daily for 10 days; FIG. 3
Procedure: (§1) Male Hartley guinea pigs weighing 350-400 g were divided into three groups, i.e., the control group, the ovalbumin (OA) group and the OA+γ-GCE group. The control group was allowed to inhale an aerosol of physiological saline for 7-8 minutes per day for 10 consecutive days. The OA group was allowed to inhale an aerosol of 2% OA in the same manner. The OA+γ-GCE group was allowed to similarly inhale an aerosol of 2% OA together with intraperitoneal administration of 10 mg/kg of γ-GCE twice daily for 10 days.
Evaluation of efficacy was performed by measuring (1) the minimum provocative concentration of acetylcholine (Ach) at which the respiratory resistance reached more than 200% of baseline (Ach Provocative Concentration 200) both before and after inhalation for 10 days, together with measuring (2) the number of pulmonary membrane β-receptors and adenylate cyclase activity, and (3) xanthine oxidase activities in lung tissue, bronchoalveolar lavage fluid and serum, following 10 days of inhalation.
Each of the measurements were made using 6 animals in each group, and the results were expressed as mean ± standard deviation. Evaluation of significance was performed using Dunnett's test. Cases of P being less than 0.05 were considered to be statistically significant.

[3] = test system: pulmonary membrane β-receptors; experiment: Number of pulmonary membrane β-receptors in ovalbumin inhalation model; format: in vivo; details: guinea pig; 2% OA aerosol 10 days; 10 mg/kg i.p. twice daily for 10 days; FIG. 4
Procedure: as §1, with “10 days. […] Each of the measurements were made using 6 animals in each group, and the results were expressed as mean ± standard deviation. Evaluation of significance was performed using Dunnett's test. Cases of P being less than 0.05 were considered to be statistically significant.” for “10 days.”

[4] = test system: pulmonary membrane adenylate cyclase; experiment: Pulmonary membrane adenylate cyclase activity in ovalbumin inhalation model; format: in vivo; details: guinea pig; 2% OA aerosol 10 days; 10 mg/kg i.p. twice daily for 10 days; isoproterenol-stimulated and baseline; FIG. 5
Procedure: as §1, with “10 days. […] Each of the measurements were made using 6 animals in each group, and the results were expressed as mean ± standard deviation. Evaluation of significance was performed using Dunnett's test. Cases of P being less than 0.05 were considered to be statistically significant.” for “10 days.”

xanthine oxidase = experiment: Xanthine oxidase activities in lung tissue, bronchoalveolar lavage fluid and serum; format: in vivo; details: guinea pig; OA inhalation 10 days + 10 mg/kg i.p. twice daily
Procedure: as §1, with “10 days. […] Each of the measurements were made using 6 animals in each group, and the results were expressed as mean ± standard deviation. Evaluation of significance was performed using Dunnett's test. Cases of P being less than 0.05 were considered to be statistically significant.” for “10 days.”

Row | Compound | half-life in the blood when administered [1] | effect on increase in airway responsiveness (decrease in log[Ach PC200]) after OA inhalation [2] | effect on the reduction in pulmonary membrane β-receptors after OA inhalation [3] | effect on the reduction in pulmonary membrane adenylate cyclase activity after OA inhalation [4] | Xanthine oxidase activity, bronchoalveolar lavage fluid (xanthine oxidase) [mU/ml] | Xanthine oxidase activity, lung tissue (xanthine oxidase) [mU/g tissue] | Xanthine oxidase activity, serum (xanthine oxidase) [mU/ml] | xanthine oxidase values compared with the OA group, lung tissue and bronchoalveolar lavage fluid (xanthine oxidase)
1 | N[C@@H](CCC(=O)N[C@@H](CS)C(=O)NCC(=O)O)C(=O)O [GSH, reduced glutathione, reference compound] | several minutes | – | – | – | – | – | – | –
2 | CCOC(=O)[C@H](CS)NC(=O)CC[C@H](N)C(=O)O [γ-GCE, γ-L-glutamyl-L-cysteine ethyl ester] | – | inhibited (1) the remarkable increase in airway responsiveness | inhibited | inhibited | 9.43 ± 0.95 | 33.3 ± 4.02 | 10.0 ± 1.77 | significantly lower than those of the OA group
